Measurements reported in the CheMixHub viscosity set.
± gives the uncertainty stated by the source.

Assay: xn = mol fraction of the nth substance listed

C=CC(=O)OCCCC + CCOCCOCCO
viscosity [mPa·s], 101 kPa
Details	293.15 K	298.15 K	303.15 K	308.15 K	313.15 K	318.15 K
x2 = 0.0702	0.966 ± 0.071	0.899 ± 0.07	0.837 ± 0.07	0.782 ± 0.07	0.733 ± 0.07	0.687 ± 0.07
x2 = 0.1444	1.059 ± 0.071	0.977 ± 0.071	0.904 ± 0.07	0.839 ± 0.07	0.783 ± 0.07	0.733 ± 0.07
x2 = 0.2183	1.167 ± 0.071	1.07 ± 0.071	0.986 ± 0.071	0.913 ± 0.07	0.849 ± 0.07	0.791 ± 0.07
x2 = 0.2855	1.287 ± 0.071	1.175 ± 0.071	1.078 ± 0.071	0.994 ± 0.071	0.92 ± 0.07	0.854 ± 0.07
x2 = 0.3658	1.453 ± 0.071	1.332 ± 0.071	1.207 ± 0.071	1.108 ± 0.071	1.022 ± 0.071	0.947 ± 0.07
x2 = 0.4403	1.637 ± 0.071	1.499 ± 0.071	1.346 ± 0.071	1.233 ± 0.071	1.127 ± 0.071	1.039 ± 0.071
x2 = 0.5027	1.819 ± 0.072	1.649 ± 0.071	1.477 ± 0.071	1.343 ± 0.071	1.227 ± 0.071	1.126 ± 0.071
x2 = 0.569	2.028 ± 0.072	1.817 ± 0.072	1.646 ± 0.071	1.488 ± 0.071	1.351 ± 0.071	1.236 ± 0.071
x2 = 0.6545	2.363 ± 0.073	2.103 ± 0.072	1.884 ± 0.072	1.697 ± 0.072	1.531 ± 0.071	1.393 ± 0.071
x2 = 0.7189	2.654 ± 0.074	2.336 ± 0.073	2.079 ± 0.072	1.871 ± 0.072	1.672 ± 0.072	1.527 ± 0.071
x2 = 0.787	2.982 ± 0.075	2.609 ± 0.074	2.295 ± 0.073	2.069 ± 0.072	1.842 ± 0.072	1.681 ± 0.072
x2 = 0.8385	3.27 ± 0.076	2.85 ± 0.074	2.481 ± 0.073	2.243 ± 0.073	1.992 ± 0.072	1.816 ± 0.072
x2 = 0.9319	3.843 ± 0.078	3.312 ± 0.076	2.873 ± 0.074	2.586 ± 0.074	2.28 ± 0.073	2.07 ± 0.072

CC(C)CO + CCCCO
101 kPa
Details	viscosity [mPa·s]
293.15 K, x2 = 0.2	3.68 ± 0.036
293.15 K, x2 = 0.4	3.434 ± 0.034
293.15 K, x2 = 0.6	3.243 ± 0.032
293.15 K, x2 = 0.8	3.078 ± 0.03
298.15 K, x2 = 0.0982	3.238 ± 0.043
298.15 K, x2 = 0.2007	3.111 ± 0.042
298.15 K, x2 = 0.301	3.016 ± 0.04
298.15 K, x2 = 0.4046	2.935 ± 0.039
298.15 K, x2 = 0.5026	2.859 ± 0.038
298.15 K, x2 = 0.6261	2.772 ± 0.037
298.15 K, x2 = 0.7024	2.726 ± 0.036
298.15 K, x2 = 0.8001	2.672 ± 0.035
298.15 K, x2 = 0.9178	2.608 ± 0.034
313.15 K, x2 = 0.2	2.022 ± 0.022
313.15 K, x2 = 0.4	1.937 ± 0.021
313.15 K, x2 = 0.6	1.872 ± 0.02
313.15 K, x2 = 0.8	1.818 ± 0.019

C1CCC2=[NH+]CCCN2CC1.c1nc[n-]n1 + CN(C)C=O
303.15 K, 100 kPa
Details	viscosity [mPa·s]
x1 = 0.1001	1.42 ± 0.03
x1 = 0.2	3.07 ± 0.07
x1 = 0.2999	6.28 ± 0.14
x1 = 0.4003	11.77 ± 0.27
x1 = 0.4989	25.38 ± 0.59
x1 = 0.6002	46.11 ± 1.1
x1 = 0.7008	98.43 ± 3.2
x1 = 0.7993	195 ± 9.9
x1 = 0.9002	470.1 ± 38

CC1=CCC2CC1C2(C)C (stereo not given) + COC(C)(C)C
298.15 K, 101.33 kPa
Details	viscosity [mPa·s]
x2 = 0.0598	1.196 ± 0.0096
x2 = 0.128	1.091 ± 0.0088
x2 = 0.2151	0.9713 ± 0.0079
x2 = 0.357	0.8048 ± 0.0068
x2 = 0.4839	0.6762 ± 0.0061
x2 = 0.5691	0.603 ± 0.0057
x2 = 0.6514	0.5379 ± 0.0054
x2 = 0.7236	0.4866 ± 0.0052
x2 = 0.8254	0.4221 ± 0.0049
x2 = 0.9034	0.379 ± 0.0048
x2 = 0.9583	0.3576 ± 0.0047

C=CC(=O)OC + CCCO
viscosity [mPa·s], 101.33 kPa
Details	308.15 K	318.15 K
x1 = 0.0501	1.354 ± 0.009	1.107 ± 0.007
x1 = 0.1464	1.081 ± 0.007	0.916 ± 0.006
x1 = 0.2331	0.9 ± 0.006	0.782 ± 0.006
x1 = 0.3469	0.727 ± 0.005	0.648 ± 0.005
x1 = 0.4436	0.622 ± 0.005	0.561 ± 0.004
x1 = 0.5011	0.572 ± 0.005	0.519 ± 0.004
x1 = 0.5436	0.541 ± 0.004	0.492 ± 0.004
x1 = 0.6429	0.483 ± 0.004	0.439 ± 0.004
x1 = 0.7442	0.441 ± 0.004	0.397 ± 0.004
x1 = 0.8449	0.413 ± 0.004	0.365 ± 0.003
x1 = 0.9424	0.396 ± 0.004	0.343 ± 0.003

CCCCCOC(C)=O + ClC(Cl)C(Cl)Cl
303.15 K, 101.3 kPa
Details	viscosity [mPa·s]
x1 = 0.1051	1.473 ± 0.01
x1 = 0.2031	1.446 ± 0.01
x1 = 0.3044	1.401 ± 0.0099
x1 = 0.4008	1.34 ± 0.0095
x1 = 0.5038	1.256 ± 0.009
x1 = 0.598	1.165 ± 0.0084
x1 = 0.7002	1.061 ± 0.0079
x1 = 0.7935	0.9582 ± 0.0073
x1 = 0.8927	0.8565 ± 0.0068

CC1CCC(C)O1 (stereo not given) + Brc1ccccc1
viscosity [mPa·s], 101 kPa
Details	x1 = 0.0965	x1 = 0.2006	x1 = 0.3011	x1 = 0.4016	x1 = 0.4921
298.15 K	1.003 ± 0.0068	0.941 ± 0.0064	0.8808 ± 0.006	0.8196 ± 0.0056	0.7658 ± 0.0053
313.15 K	0.833 ± 0.0059	0.7831 ± 0.0056	0.7338 ± 0.0052	0.6848 ± 0.0049	0.6411 ± 0.0047

Cc1ccccc1O + C1CCCCC1
308.15 K, 101 kPa
Details	viscosity [mPa·s]
x1 = 0.0821	0.8505 ± 0.007
x1 = 0.1618	0.9431 ± 0.0077
x1 = 0.2824	1.146 ± 0.009
x1 = 0.3677	1.341 ± 0.011
x1 = 0.4418	1.568 ± 0.012
x1 = 0.5033	1.708 ± 0.013
x1 = 0.5871	2.049 ± 0.016
x1 = 0.7934	3.199 ± 0.024
x1 = 0.8996	4.104 ± 0.031
